# Laboratory results as given in patent US6071950A, “N-substituted pyrrolidine derivatives and process for preparing the same” (Kyorin Pharmaceutical Co., Ltd., priority 1996, dated 2000).
# Tests used:
# [1] = test system: defecation model under restraint stress; assay: Inhibitory effect in the defecation model under restraint stress (in vivo test); parameters: species or system rat; settings: Wistar male rats; 10 mg/kg orally, restraint stress 30 minutes later; defecation measured after 1 hour
# Experimental: (§1) 4. Inhibitory effect in the defecation model under restraint stress (in vivo test)
# (§2) Wistar strain male rats were employed. Testing drug was administered orally at 10 mg/kg and, after 30 minutes, the restraint stress was given by fixing the forefeet of rat on back side under anesthetization with ether. Moreover, the diameter of pupil (mm) was also measured.
# (§3) After allowed to stand for 1 hour in separate cage, the defecation level and diameter of pupil were measured.
# The inhibitory rate of defecation was determined from following formula.
# [2] = molecular target: T1, ileum muscarine receptors (Cavia porcellus, UniProt H0W1Z3); assay: Antagonism on the acetylcholine-induced contraction of ileum (in vitro test); settings: guinea pig ileum, Schild plot, acetylcholine 10^-9 M~3×10^-6 M, 28° C., read-out: pA2 Ileum (converted)
# T1 construct: The ileum was removed to make a 1.5 to 2 cm preparation; from tissue; host or cells: isolated ileum of Hartley male guinea pig
# Experimental: 1. Antagonism on the acetylcholine-induced contraction of ileum (in vitro test)
# Hartley male guinea pig was killed by stunning and bleeding. The ileum was removed to make a 1.5 to 2 cm preparation. The preparation was mounted in a 10 ml organ bath filled with Tyrode's solution of 28° C. that was bubbled with 95% O2 /5% CO2. The initial resting tension of 1 g was applied to the preparation and measurement of isomeric muscle tension was recorded.
# (§4) The action of testing drug is shown in terms of pA2 determined from Schild plot of the extent of right shift of the concentration-response curve on 10^-9 M~3×10^-6 M of acetylcholine.
# [3] = test system: pupil; assay: Diameter of pupil in the restraint stress model (in vivo test); parameters: species or system rat; settings: Wistar male rats, 10 mg/kg orally
# Experimental: as §1, §2, §3
# [4] = molecular target: T2, sphincter muscle of the pupil (Oryctolagus cuniculus, UniProt G1U308); assay: Antagonism on the acetylcholine-induced contraction of pupil (in vitro test); settings: rabbit sphincter muscle of the pupil, Schild plot, acetylcholine 10^-6 M~10^-2 M, 30° C., read-out: pA2 Pupil (converted)
# T2 construct: The eyeball was removed to make a preparation of sphincter muscle of the pupil; from tissue; host or cells: isolated pupillary sphincter muscle of Japanese white male rabbit
# Experimental: 2. Antagonism on the acetylcholine-induced contraction of pupil (in vitro test)
# Japanese white male rabbit was anesthetized using sodium pentobarbital and killed by bleeding. The eyeball was removed to make a preparation of sphincter muscle of the pupil. The preparation was mounted in a 10 ml organ bath filled with Krebs solution of 30° C. that was bubbled with 95% O2 /5% CO2. The initial resting tension of 0.2 g was applied to the preparation and measurement of isometric muscle tension was recorded.
# The action of testing drug is shown in terms of pA2 determined from Schild plot of the extent of right shift of the concentration-response curve on 10^-6 M~10^-2 M of acetylcholine.
# [5] = molecular target: T3, heart muscarine receptors (Cavia porcellus, UniProt H0VRN8); assay: Antagonism action on the acetylcholine-induced negative chronotropic action of atrium of heart (in vitro test); settings: guinea pig atrium of heart, Schild plot, acetylcholine 10^-9 M~3×10^-6 M, 32° C., read-out: pA2 Atrium (converted)
# T3 construct: The heart was removed to make a preparation of atrium of heart; from tissue; host or cells: isolated atrium of Hartley male guinea pig
# T3 sequence (H0VRN8 1-466): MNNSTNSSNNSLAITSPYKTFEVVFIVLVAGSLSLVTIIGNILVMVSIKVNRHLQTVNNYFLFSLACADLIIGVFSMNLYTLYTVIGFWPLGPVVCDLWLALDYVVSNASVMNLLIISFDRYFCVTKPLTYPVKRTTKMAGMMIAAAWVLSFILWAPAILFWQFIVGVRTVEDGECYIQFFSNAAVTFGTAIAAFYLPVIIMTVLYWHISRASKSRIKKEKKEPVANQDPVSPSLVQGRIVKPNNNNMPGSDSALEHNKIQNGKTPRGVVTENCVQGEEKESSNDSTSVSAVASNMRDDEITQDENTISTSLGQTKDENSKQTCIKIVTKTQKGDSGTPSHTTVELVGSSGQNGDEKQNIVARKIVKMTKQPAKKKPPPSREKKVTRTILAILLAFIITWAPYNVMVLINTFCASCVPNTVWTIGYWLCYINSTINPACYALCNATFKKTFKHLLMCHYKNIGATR
# Experimental: 3. Antagonism action on the acetylcholine-induced negative chronotropic action of atrium of heart (in vitro test)
# Hartley male guinea pig was killed by stunning and bleeding. The heart was removed to make a preparation of atrium of heart. The preparation was mounted in a 10 ml organ bath filled with Krebs-Henseleit solution of 32° C. that was bubbled with 95% O2 /5% CO2. The initial resting tension was made to be 0.5 g and measurement of isometric muscle tension was recorded.
# as §4
# T2 sequence (G1U308 entry or part of it): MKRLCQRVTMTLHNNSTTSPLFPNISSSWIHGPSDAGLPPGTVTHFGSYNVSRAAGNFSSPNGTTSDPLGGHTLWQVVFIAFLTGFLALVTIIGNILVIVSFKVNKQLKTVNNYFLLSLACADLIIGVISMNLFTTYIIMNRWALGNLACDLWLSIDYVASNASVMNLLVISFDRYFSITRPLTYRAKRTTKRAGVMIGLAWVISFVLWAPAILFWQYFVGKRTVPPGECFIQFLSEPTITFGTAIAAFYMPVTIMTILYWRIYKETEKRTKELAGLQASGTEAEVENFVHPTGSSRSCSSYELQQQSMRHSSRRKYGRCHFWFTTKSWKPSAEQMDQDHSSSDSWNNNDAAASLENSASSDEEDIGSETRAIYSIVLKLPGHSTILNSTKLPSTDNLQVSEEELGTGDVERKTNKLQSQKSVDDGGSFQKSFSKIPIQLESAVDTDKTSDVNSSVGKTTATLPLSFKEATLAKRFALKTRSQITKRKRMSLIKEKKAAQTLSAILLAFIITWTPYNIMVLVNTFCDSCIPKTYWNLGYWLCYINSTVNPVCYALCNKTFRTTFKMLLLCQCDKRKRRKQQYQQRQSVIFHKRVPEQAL
# T1 sequence (H0W1Z3 1-590): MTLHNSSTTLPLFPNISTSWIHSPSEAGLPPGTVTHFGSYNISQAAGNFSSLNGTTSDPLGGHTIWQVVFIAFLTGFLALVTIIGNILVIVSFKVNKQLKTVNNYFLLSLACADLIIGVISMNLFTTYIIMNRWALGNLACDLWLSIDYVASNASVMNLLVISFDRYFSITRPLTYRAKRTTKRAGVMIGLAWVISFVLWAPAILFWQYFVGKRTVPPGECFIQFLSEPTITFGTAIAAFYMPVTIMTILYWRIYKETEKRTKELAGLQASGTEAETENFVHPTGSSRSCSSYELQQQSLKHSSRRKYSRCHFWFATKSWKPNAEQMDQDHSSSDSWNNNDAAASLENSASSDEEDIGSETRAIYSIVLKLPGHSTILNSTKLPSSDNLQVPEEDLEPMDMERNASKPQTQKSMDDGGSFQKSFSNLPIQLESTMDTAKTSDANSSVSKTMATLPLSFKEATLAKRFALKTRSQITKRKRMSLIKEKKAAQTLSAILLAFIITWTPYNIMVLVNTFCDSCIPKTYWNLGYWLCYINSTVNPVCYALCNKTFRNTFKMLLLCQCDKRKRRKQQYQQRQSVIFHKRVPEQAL
smiles,measurement,setting,value
"NC(=O)C(CCN1CCC(OCc2cccc(Cl)c2)C1)(c1ccccc1)c1ccccc1 (stereo not drawn) [Example 9, 4-[3-(3-chlorobenzyloxy)pyrrolidine-1-yl]-2,2-diphenylbutaneamide]",Inhibitory rate of defecation (%),[1],48.9%
same,Kb,[2],25.1 nM
same,"Diameter of pupil (mm), Immediately after restraint",[3]; Control 0.44,0.43 mm
same,"Diameter of pupil (mm), After restraint","[3]; after 1 hour, Control 0.48",0.45 mm
same,Kb,[4],50.1 nM
same,Kb,[5],631 nM
